Data published in patent US20260042755A1, “GPR6 INVERSE AGONISTS” (MapLight Therapeutics, Inc., priority 2022, published 2026).

Experiments:
[1] = molecular target: T1, GPR6 (Homo sapiens, UniProt P46095); experiment: GPR6 antagonist functional cAMP assay (LANCE Ultra cAMP TR-FRET, CHO cells stably expressing GPR6); format: cell-based
T1 construct: expressed in transfected cells; host or cells: CHO cells
In short: (§1)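 Stable CHO-GPR6 or CHO-GPR3 cells (10,000/well) in Krebs-Ringer buffer with 0.1% BSA and 150 μM Ro 20-1724 were exposed to compounds for 45 min at 37° C (0.1% DMSO). cAMP read by LANCE Ultra TR-FRET; IC50 from 4-parameter fit normalized to DMSO and reference compounds.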

[2] = molecular target: T2, GPR3 (Homo sapiens, UniProt P46089); experiment: GPR3 antagonist functional cAMP assay (LANCE Ultra cAMP TR-FRET, CHO cells stably expressing GPR3); format: cell-based
T2 construct: expressed in transfected cells; host or cells: CHO cells
T2 sequence (P46089 whole entry, species assumed): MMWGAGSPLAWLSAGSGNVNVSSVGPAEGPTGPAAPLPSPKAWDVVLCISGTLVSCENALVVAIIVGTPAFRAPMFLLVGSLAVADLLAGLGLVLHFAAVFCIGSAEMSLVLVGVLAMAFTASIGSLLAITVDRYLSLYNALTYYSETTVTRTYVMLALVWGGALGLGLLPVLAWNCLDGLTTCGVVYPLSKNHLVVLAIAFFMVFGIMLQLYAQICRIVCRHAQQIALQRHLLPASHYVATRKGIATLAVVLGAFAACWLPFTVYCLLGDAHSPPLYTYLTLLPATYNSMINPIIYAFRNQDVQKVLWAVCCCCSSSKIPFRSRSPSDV
In short: as §1

[3] = procedure as described in Example 24
[4] = CHO cells stably expressing GPR6, cAMP assay (Example 24)
[5] = CHO cells stably expressing GPR3, cAMP assay (Example 24)
[6] = CHO cells stably expressing GPR6, cAMP assay
[7] = CHO cells stably expressing GPR3, cAMP assay

T1 sequence (P46095 whole entry): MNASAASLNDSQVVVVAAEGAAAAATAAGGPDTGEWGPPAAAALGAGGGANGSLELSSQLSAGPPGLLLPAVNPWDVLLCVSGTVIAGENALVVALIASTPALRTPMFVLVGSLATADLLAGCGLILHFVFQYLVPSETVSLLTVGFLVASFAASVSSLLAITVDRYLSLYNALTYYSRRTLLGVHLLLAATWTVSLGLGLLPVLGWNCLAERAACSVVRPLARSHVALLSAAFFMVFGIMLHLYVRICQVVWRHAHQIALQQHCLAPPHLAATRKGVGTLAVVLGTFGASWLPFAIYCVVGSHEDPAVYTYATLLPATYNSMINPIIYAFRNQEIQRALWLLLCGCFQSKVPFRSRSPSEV

Compound `CC(=O)N1CCc2nc(N3CCC(Oc4ccc(F)cc4F)CC3)c(-c3ncco3)nc2C1` [Compound 18, 1-{2-[4-(2,4-difluorophenoxy)piperidin-1-yl]-3-(1,3-oxazol-2-yl)-5H,6H,7H,8H-pyrido[3,4-b]pyrazin-6-yl}ethan-1-one] has an IC50 [1, 3] of 1 to 30 µM and an IC50 [2, 3] of 0.1 to 1 µM.
In the case of `CC(C)(O)C(C)(O)c1cc2nc(N3CCC(Oc4ccc(F)cc4F)CC3)c(-c3cnn(C4CC4)c3)nc2cn1` (centres unmarked) [Compound 632, 2-{3-(1-cyclopropyl-4-pyrazolyl)-2-[4-(2,4-difluorophenoxy)-1-piperidyl]-1,4,6-triaza-7-naphthyl}-3-methyl-2,3-butanediol], the IC50 ([1]; procedure of Example 24) is reported as 0.1 to 1 µM and the IC50 ([2]; procedure of Example 24) is reported as 1 to 30 µM.
Work on `CC(C)(O)[C@@H](O)c1cc2nc(N3CCN(Cc4ccc(F)cc4F)CC3)c(-c3cnn(C(F)F)c3)nc2cn1` (single isomer, unassigned) [Compound 397] yielded an IC50 [1, 4] of less than 0.1 µM and an IC50 [2, 5] of 1 to 30 µM.
Compound `CC(C)(O)[C@@H](O)c1cc2nc(N3CCN(Cc4cc(F)ccc4F)CC3)c(-c3cnn(CF)c3)nc2cn1` (single isomer, unassigned) [Compound 725] has an IC50 ([1]; procedure of Example 24) of 0.1 to 1 µM and an IC50 ([2]; procedure of Example 24) of no less than 30 µM.
Work on `Cn1cc(-c2nc3cnc(C[C@H](O)CO)cc3nc2N2CCC(Oc3ccc(F)cc3F)CC2)cn1` (single isomer, unassigned) [Compound 416] yielded an IC50 [1, 4] of 0.1 to 1 µM and an IC50 [2, 5] of 1 to 30 µM.
With `Fc1ccc(OC2CCN(c3nc4ccncc4nc3-c3ncn[nH]3)CC2)c(F)c1` [Compound 96, 4-(2,4-difluorophenoxy)-1-[3-(1H-1,2,4-triazol-5-yl)pyrido[3,4-b]pyrazin-2-yl]piperidine] the IC50 [1, 4] was 1 to 30 µM and the IC50 [2, 5] was 1 to 30 µM.
With `COc1cc(-c2nc3c(nc2N2CCC(Oc4ccc(F)cc4F)CC2)CCN(C(C)=O)C3)cnn1` [Compound 235, 1-{2-[4-(2,4-difluorophenoxy)piperidin-1-yl]-3-(6-methoxypyridazin-4-yl)-5H,6H,7H,8H-pyrido[3,4-b]pyrazin-6-yl}ethan-1-one] the IC50 [1, 4] was 1 to 30 µM and the IC50 [2, 5] was 1 to 30 µM.
Compound `Fc1ccc(OC2CCN(c3nc4c(nc3-c3cn[nH]c3)CNCC4)CC2)c(F)c1` [Compound 124, 4-(2,4-difluorophenoxy)-1-[3-(1H-pyrazol-4-yl)-5H,6H,7H,8H-pyrido[3,4-b]pyrazin-2-yl]piperidine] has an IC50 [1, 4] of 1 to 30 µM and an IC50 [2, 5] of 1 to 30 µM.
`Cn1cc(-c2nc3cnccc3nc2N2CCN(Cc3ccc(F)cc3F)C[C@H]2CO)cn1` (single isomer, unassigned) [Compound 292] was tested, and the IC50 ([1]; procedure of Example 24) was no less than 30 µM and the IC50 ([2]; procedure of Example 24) was 1 to 30 µM.
`CC(C)(O)C(O)c1cc2nc(-c3cnn(C4CC4)c3)c(N3CCC(Oc4ccc(F)cc4F)CC3)nc2cn1` (single isomer, unassigned) [Compound 591] showed an IC50 [1, 6] of less than 0.1 µM and an IC50 [2, 7] of 1 to 30 µM.
In the case of `Cn1cc(-c2nc3c(Cl)nccc3nc2N2CCC(Oc3ccc(F)cc3F)CC2)cn1` [Compound 328, 1-[5-chloro-3-(1-methyl-1H-pyrazol-4-yl)pyrido[3,4-b]pyrazin-2-yl]-4-(2,4-difluorophenoxy)piperidine], the IC50 ([1]; procedure of Example 24) is reported as 0.1 to 1 µM and the IC50 ([2]; procedure of Example 24) is reported as 1 to 30 µM.
For `CC(=O)N1CCc2nc(N3CCN(Cc4c(F)cc(F)cc4F)CC3)c(-c3cnn(C)c3)nc2C1` [Compound 343, 1-[3-(1-methyl-1H-pyrazol-4-yl)-2-{4-[(2,4,6-trifluorophenyl)methyl]piperazin-1-yl}-5H,6H,7H,8H-pyrido[3,4-b]pyrazin-6-yl]ethan-1-one], the IC50 ([1]; procedure of Example 24) was 1 to 30 µM and the IC50 ([2]; procedure of Example 24) was 1 to 30 µM.
`CC(C)(O)C(=O)c1cc2nc(N3CCC(Oc4ccc(F)cc4F)CC3)c(-c3cnn(CF)c3)nc2cn1` [Compound 621, 1-{2-[4-(2,4-difluorophenoxy)-1-piperidyl]-3-[1-(fluoromethyl)-4-pyrazolyl]-1,4,6-triaza-7-naphthyl}-2-hydroxy-2-methyl-1-propanone] was tested, and the IC50 ([1]; procedure of Example 24) was 0.1 to 1 µM and the IC50 ([2]; procedure of Example 24) was 1 to 30 µM.
Work on `CC(=O)N1CCc2nc(N3CCC(Cn4ccccc4=O)CC3)c(-c3cnn(C)c3)nc2C1` [Compound 522, 1-({1-[6-acetyl-3-(1-methyl-4-pyrazolyl)-5,6,7,8-tetrahydro-1,4,6-triaza-2-naphthyl]-4-piperidyl}methyl)-2(1H)-pyridinone] yielded an IC50 [1, 6] of 1 to 30 µM and an IC50 [2, 7] of 1 to 30 µM.
`CC(C)(O)[C@@H](O)c1cc2nc(N3CCC(Oc4ccc(F)cc4F)CC3)c(-c3cnn(CF)c3)nc2cn1` (single isomer, unassigned) [Compound 597] showed an IC50 [1, 6] of 0.1 to 1 µM and an IC50 [2, 7] of 1 to 30 µM.
`CNC(CO)c1cc2nc(N3CCC(Oc4ccc(F)cc4F)CC3)c(-c3cnn(C)c3)nc2cn1` (centres unmarked) [Compound 442, 2-{2-[4-(2,4-difluorophenoxy)piperidin-1-yl]-3-(1-methyl-1H-pyrazol-4-yl)pyrido[3,4-b]pyrazin-7-yl}-2-(methylamino)ethan-1-ol] was tested, and the IC50 [1, 4] was 1 to 30 µM and the IC50 [2, 5] was 1 to 30 µM.
`CC(=O)N1CCc2nc(N3CCC(Oc4ccc(C(F)(F)F)cc4F)CC3)c(-c3cnn(C)c3)nc2C1` [Compound 501, 1-(2-{4-[2-fluoro-4-(trifluoromethyl)phenoxy]-1-piperidyl}-3-(1-methyl-4-pyrazolyl)-5,6,7,8-tetrahydro-1,4,6-triaza-6-naphthyl)-1-ethanone] was tested, and the IC50 [1, 6] was 0.1 to 1 µM and the IC50 [2, 7] was 0.1 to 1 µM.
In the case of `CC(=O)N1CCc2nc(N3CCC(Oc4ccc(F)cc4F)CC3)c(-c3cnn(C(F)F)c3)nc2C1` [Compound 15, 1-{3-[1-(difluoromethyl)-1H-pyrazol-4-yl]-2-[4-(2,4-difluorophenoxy)piperidin-1-yl]-5H,6H,7H,8H-pyrido[3,4-b]pyrazin-6-yl}ethan-1-one], the IC50 [1, 3] is reported as 0.1 to 1 µM and the IC50 [2, 3] is reported as 1 to 30 µM.
Compound `COc1ncc(-c2nc3c(nc2N2CCC(Oc4ccc(F)cc4F)CC2)CCN(C(C)=O)C3)cc1F` [Compound 160, 1-{2-[4-(2,4-difluorophenoxy)piperidin-1-yl]-3-(5-fluoro-6-methoxypyridin-3-yl)-5H,6H,7H,8H-pyrido[3,4-b]pyrazin-6-yl}ethan-1-one] has an IC50 [1, 4] of 0.1 to 1 µM and an IC50 [2, 5] of 1 to 30 µM.
`CCn1cc(-c2nc3c(nc2N2CCC(Oc4ccc(F)cc4F)CC2)CCN(C(=O)C2COCCN2)C3)cn1` (centres unmarked) [Compound 491, 3-{2-[4-(2,4-difluorophenoxy)piperidin-1-yl]-3-(1-ethyl-1H-pyrazol-4-yl)-5H,6H,7H,8H-pyrido[3,4-b]pyrazine-6-carbonyl}morpholine] showed an IC50 [1, 6] of less than 0.1 µM and an IC50 [2, 7] of 1 to 30 µM.
`CCn1cc(-c2nc3c(nc2N2CCC(Oc4cc(Cl)ccc4Cl)CC2)CCN(C[C@@H](O)CO)C3)cn1` (single isomer, unassigned) [Compound 408] was tested, and the IC50 [1, 4] was 0.1 to 1 µM and the IC50 [2, 5] was 1 to 30 µM.
For `CC(=O)N1CCc2nc(N3CCC(=Cc4ccc(F)cc4)CC3)c(-c3cnn(C)c3)nc2C1` [Compound 560, 1-(2-{4-[(p-fluorophenyl)methylene]-1-piperidyl}-3-(1-methyl-4-pyrazolyl)-5,6,7,8-tetrahydro-1,4,6-triaza-6-naphthyl)-1-ethanone], the IC50 [1, 6] was less than 0.1 µM and the IC50 [2, 7] was 0.1 to 1 µM.
`Fc1ccc(OC2CC=C(c3nc4ccncc4nc3-c3ncco3)CC2)c(F)c1` (centres unmarked) [Compound 301, 2-{2-[4-(2,4-difluorophenoxy)cyclohex-1-en-1-yl]pyrido[3,4-b]pyrazin-3-yl}-1,3-oxazole] gave an IC50 ([1]; procedure of Example 24) of 1 to 30 µM and an IC50 ([2]; procedure of Example 24) of 1 to 30 µM.
With `COCC(C)(O)c1cc2nc(-c3cnn(C)c3)c(N3CCC(Oc4ccc(F)cc4F)CC3)nc2cn1` (centres unmarked) [Compound 652, 2-{3-[4-(2,4-difluorophenoxy)-1-piperidyl]-2-(1-methyl-4-pyrazolyl)-1,4,6-triaza-7-naphthyl}-1-methoxy-2-propanol] the IC50 ([1]; procedure of Example 24) was less than 0.1 µM and the IC50 ([2]; procedure of Example 24) was 1 to 30 µM.
`Fc1ccc(Cl)cc1CN1CCN(c2nc3cnccc3nc2-c2ncc[nH]2)CC1` [Compound 42] showed an IC50 [1, 3] of 1 to 30 µM and an IC50 [2, 3] of 0.1 to 1 µM.
